# Experimental data from patent publication US20090105149A1, “Compounds comprising lpa” (ENKAM PHARMACEUTICALS A/S, priority 2003, published 2009).
# Marks after values point to notes of the source that are not given here.
# How the values were obtained:
# hippocampal neurons = experiment: Survival of hippocampal neurons exposed to Aβ25-35; format: cell-based, rat; details: for Neuronal Survival (% of Control): β-amyloid, Hippocampal (E19)
# Method: For the experiments dissociated hippocampal neurons were isolated from Wistar rat embryos at embryonic day 19 or newborn rats as described by Rønn et al. (1999) Nat. Biotechnol. 17:1000-5.
# Briefly, hippocampus was isolated from the brain in ice cold modified Krebs Ringer solution, cleared of blood vessels, roughly homogenised by chopping and then trypsinised. The dissociated cells were washed in the presence of DNAse 1 and soybean trypsin inhibitor.
# For the assay neurons were plated at a density of 40,000 cells/cm^2 on 8-well permanox slides coated with 10 μg/ml poly-L-lysine in Neurobasal medium. 15 minutes after plating, Aβ25-35 was added to a final concentration of 20 μM. The Aβ25-35 had prior to plating been dissolved in sterile deionized water to a concentration of 3 mM and incubated at 37° C. for four days according to Pigino et al. (2001) J. Neurosci. 21:834-42. This treatment induces fibrillation of the Aβ-peptide fragment, thereby increasing its neurotoxic activity. The neurons were incubated with Neurobasal medium containing the FGL peptide for 70 hours, fixed with 4% (v/v) formaldehyde, and stained with Hoechst 33258 for 25 minutes as described by Kruman et al. (1997). Images of 1000-1500 neurons were randomly recorded for each group in each experiment using computer assisted fluorescence microscopy as described for the hippocampal neurite outgrowth assay. Nuclei from dead and live neurons were counted using the software package Prima developed at the Protein Laborator, Copenhagen University, and the fraction of live neurons relative to the total number of neurons was estimated.
# [1] = test system: cerebellar granule neurons (CGN); experiment: TUNEL assay, DNA-fragmentation in KCl-deprived CGN; format: cell-based, rat; details: at 10-15 μg/ml; relative to apoptotic neurons without treatment
# Method: The number of neurons with fragmented DNA was measured using the Apo-Alert apoptosis detection kit and the fraction of TUNEL-positive neurons was estimated by counting. Results from at least four independent experiments are shown as percentage of cells showing DNA-fragmentation relative to the total number of cells ±SEM with control cultures in low KCl set at 100%. • (a) Effect of depriving CGN cultures of high KCl on number of cells undergoing apoptosis. • (b) Effect of FGLd in apoptosis-induced CGN cultures.
# 24 hours after induction of apoptotic cell death, the cultures were fixed and the extent of DNA-fragmentation was measured using the ApoAlert apoptosis detection kit, essentially as described by the manufacturer. Briefly, blunt ends of double-stranded DNA molecules were enzymatically labelled with fluorescein-dUTP, and all the neurons were stained with propidium iodide at a concentration of 750 ng/ml. Images of at least 200 neurons from each group in each experiment were obtained using a BioRad Radiance laser scanning system 2000 coupled to a Nikon Eclipse TE 200 confocal microscope equipped with an oil immersion 60×1.4 NA objective (Nikon, Tokyo, Japan). The fraction of TUNEL-positive neurons was determined by counting.
# [2] = test system: dissociated hippocampal neurons; experiment: OGD, metabolic activity (MTS) in dissociated hippocampal cell cultures; format: cell-based, rat
# Source text: In the present study it was investigated the effect of the FGL peptide on synaptic plasticity, neuronal function and vulnerability following oxygen and glucose deprivation (OGD) in organotypic hippocampal neuronal slice cultures (OHSC) from 7-day-old Wistar rats according to method of Stoppini et al. (1991) Neurosci Methods. 37:173-82 and primary cultures of dissociated hippocampal neurons from 1-day-old rats according to method of Maar et al. (1997) J Neurosci Res. 47:163-72. Primary cell cultures were maintained for 11-12 days and OHSC for 12-14 days prior to adding FGLd.
# The primary cell cultures and OHSC were exposed to OGD for 10 and 20 minutes. Following OGD, the cultures were again supplied with oxygen and glucose and analysed at 1, 4 or 24 hour time point after introduction of OGD exposure. FGLd (or the control peptide FGLc) was added 24 hr before, immediately, or 1 hr or 24 hr after OGD. When administered prior to OGD, FGLd was removed from the medium when introducing OGD. In some cases, the slice cultures were treated with FGLd only at 4 hr after OGD. In addition, the FGFR inhibitor, SU5402 (25 μM), was added together with FGLd in some of the set-ups.
# In hippocampal neuronal cultures, FM 1-43 staining was used to evaluate pre-synaptic function (described above). Cell viability in both primary cell cultures and OHSC was measured using the […] [3-(4,5-dimethylthiazol-2-yl)-2,5-diphenyltetrazolium bromide] assay according to Malich et al, (1997) Toxicology. 124:179-92. In, addition, cell viability in OHSC was measured using propidium iodide (PI) staining according to Laake et al. (1999) Brain Res Brain Res Protoc. 4:173-84.
# rat pups = experiment: Surface Righting Reflex in rat pups; format: in vivo; details: intranasal 2.6 μg per pup at PND 1, 2, 3
# Method: The number of litters of each treatment group was six. […] FGLcontrol as above.
# Dose-Response study. The effect of intranasal administration of 0.026, 0.26 and 2.6 μg FGLd per day at post-natal day (PND) 1, 2 and 3 on performance of the Surface Righting Reflex by rat pups was evaluated.
# Sensory Motor Control Development study.
substance,measurement,setting,value
FGLd: MAP-type dendrimer of FGL; dendrimeric tetramer of the FGL peptide (EVYVVAENQQGKSKA),"neuroprotection of hippocampal neurons, maximal level","hippocampal neurons; at 0.3 μg/ml, 20 μM Aβ25-35, Aβ25-35-treated controls = 100%",110%
same,Neuronal Survival (% of Control),hippocampal neurons; 0.01 μg/mL,109%** % of Control
same,Neuronal Survival (% of Control),hippocampal neurons; 3 μg/mL,107%** % of Control
same,Neuronal Survival (% of Control),hippocampal neurons; 9 μg/mL,107%** % of Control
same,"reduction of number of apoptotic CGN (DNA-fragmentation), maximal rescue",[1],40%
same,"metabolic activity (MTS), treatment alone",[2]; no OGD,led to an increase in metabolic activity
same,metabolic activity (MTS) after 20 min OGD,[2]; treated 24 hours before or immediately after OGD,the effect of OGD on metabolic activity was diminished
same,"Surface Righting Reflex test, significance vs control and FGLcontrol groups","rat pups; PND4, P<0.05",statistically significant effect
same,Surface Righting Reflex performance,"rat pups; PND 5, vehicle 3.4",1.3 s
